In patent US20050250801A1, “Method of treating cancer with azaspirane compositions” (priority 2003, published 2005):
Like-named read-outs stand apart in the source and are kept apart here.

Legend:
Format in all cases: cell-based
T84 cells = assay: Inhibition of T84 colon carcinoma cell proliferation (WST-1, Example 1); details: Homo sapiens, 24 hours incubation
Procedure: The effect of N,N,-diethyl-8,8-dipropyl-2-azaspiro[4,5]decane-2-propanamine dimaleate (Compound 1) on proliferation of human colon carcinoma cells T84 and CaCo-2 was evaluated in the following manner. Cell proliferation was measured by WST-1 dye conversion to Formazan assay using the proliferation kit from BioVision, CA. The procedure used was essentially as described in the manufacture's instructions. Briefly, cells were grown for 7 days until they formed semi-confluent monolayers. On day 7, cells were trypsinized and resuspended in 96-well plates at a concentration of approximately 40,000 cells/well and allowed to grow for 24 hours at 37° C.
Subsequently, fresh media containing increasing concentrations of Compound 1, as indicated in the FIG. 1, were added and assay plates were further incubated for an additional period of 24 hours. A solution of 5 μl of WST-1 dye per well was added and plates were read after 4 hours at 440 and 600 nm using an ELISA plate reader. The absorbance at 440 minus that at 600 nm is directly proportion to the number of proliferating cells. All samples were measured in triplicate and results were expressed as an average of three determinations.

A498 = assay: NCI in vitro SRB assay, Renal Cancer; details: for GI50: Homo sapiens
Procedure: (§1) An in vitro assay which tested the ability of N,N,-diethyl-8,8-dipropyl-2-azaspiro[4,5]decane-2-propanamine dimaleate (Compound 1) to inhibit the growth of known cancer cell lines was performed by the National Cancer Institute in accordance with standard procedures. See: Lin, Z. X., Hoult, J. R., and Raman, A. Sulphorhodamine B assay for measuring proliferation of a pigmented melanocyte cell line and its application to the evaluation of crude drugs used in the treatment of vitiligo. J Ethnopharmacol. 66: 141-150, 1999. Briefly, selected tumor cell lines were cultured in media containing five different concentrations of Compound 1. After 48 hours of continuous exposure, a sulforhodamine B (SRB) assay was used to estimate cell viability or growth via optical measurements.
(§2) From the measurements, the following values were determined: 1) the concentration of Compound 1 at which a tumor cell growth inhibition of 50% (relative to control) occurs (GI50), 2) the concentration of Compound 1 at which no growth occurs (total growth inhibition, TGI), and 3) the concentration of Compound 1 at which the […] (LC 50). […] FIG. 6 illustrates, graphically, tumor cell growth as a function of Compound 1 concentration of the scanned tumor cell lines.

UO-31 = assay: NCI in vitro SRB assay, Renal Cancer; details: for CC50 / GI50: Homo sapiens
Procedure: as §1, §2

CCCC1(CCC)CCC2(CCN(CCCN(CC)CC)C2)CC1.O=C(O)/C=C\C(=O)O.O=C(O)/C=C\C(=O)O [Compound 1, N,N,-diethyl-8,8-dipropyl-2-azaspiro[4,5]decane-2-propanamine dimaleate]
IC50 (T84 cells): 625 to 1250 nM
Log10 TGI (A498): −5.50
TGI (A498): 3130 nM
GI50 (A498; read-out: GI50): 1680 nM
GI50 (A498; read-out: Log10 GI50 (converted)): 1700 nM
Mean Optical Densities (A498; Log10 conc -4.0 Moles/L): 0.157
Percent Growth (A498; Log10 conc -4.0 Moles/L): −85%
Mean Optical Densities (A498; Log10 conc -5.0 Moles/L): 0.065
Percent Growth (A498; Log10 conc -5.0 Moles/L): −94%
Mean Optical Densities (A498; Log10 conc -6.0 Moles/L): 1.336
Percent Growth (A498; Log10 conc -6.0 Moles/L): 92%
Mean Optical Densities (A498; Log10 conc -7.0 Moles/L): 1.327
Percent Growth (A498; Log10 conc -7.0 Moles/L): 89%
Mean Optical Densities (A498; Log10 conc -8.0 Moles/L): 1.297
Percent Growth (A498; Log10 conc -8.0 Moles/L): 79%
CC50 (UO-31; UO-31, read-out: LC50): 5030 nM
CC50 (UO-31; UO-31, read-out: Log10 LC50 (converted)): 5010 nM
GI50 (UO-31; UO-31, read-out: GI50): 1200 nM
GI50 (UO-31; UO-31, read-out: Log10 GI50 (converted)): 1200 nM
Log10 TGI (UO-31; UO-31): −5.61
TGI (UO-31; UO-31): 2450 nM
Mean Optical Densities (UO-31; UO-31, Log10 conc -4.0 Moles/L): 0.039
Percent Growth (UO-31; UO-31, Log10 conc -4.0 Moles/L): −87%
Mean Optical Densities (UO-31; UO-31, Log10 conc -5.0 Moles/L): 0.006
Percent Growth (UO-31; UO-31, Log10 conc -5.0 Moles/L): −98%
Mean Optical Densities (UO-31; UO-31, Log10 conc -6.0 Moles/L): 0.833
Percent Growth (UO-31; UO-31, Log10 conc -6.0 Moles/L): 63%
Mean Optical Densities (UO-31; UO-31, Log10 conc -7.0 Moles/L): 1.056
Percent Growth (UO-31; UO-31, Log10 conc -7.0 Moles/L): 89%
Mean Optical Densities (UO-31; UO-31, Log10 conc -8.0 Moles/L): 1.076
Percent Growth (UO-31; UO-31, Log10 conc -8.0 Moles/L): 91%
